Among the data in paper PMC3145970, “Specific CLK Inhibitors from a Novel Chemotype for Regulation of Alternative Splicing” (Chemistry & Biology, 2011) are ΔTm values, retold here.

Test in all cases: Thermal stability shift assay
What all share (format): binding

Assay [1] addresses T1, MAP2K6 (Homo sapiens, UniProt P52564).
T1 construct: purchased in-house (SGC Oxford thermal shift panel)
T1 sequence (P52564 1-334): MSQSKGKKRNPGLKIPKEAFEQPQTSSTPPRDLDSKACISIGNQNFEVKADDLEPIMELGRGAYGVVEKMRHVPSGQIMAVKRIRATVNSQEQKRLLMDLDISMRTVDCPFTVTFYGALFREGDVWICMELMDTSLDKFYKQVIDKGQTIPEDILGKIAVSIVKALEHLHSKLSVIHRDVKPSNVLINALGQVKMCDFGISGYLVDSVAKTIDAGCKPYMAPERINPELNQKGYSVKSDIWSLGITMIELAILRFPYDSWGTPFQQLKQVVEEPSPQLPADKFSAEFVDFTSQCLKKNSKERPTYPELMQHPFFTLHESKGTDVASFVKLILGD
The settings on record: read-out: Tm shift MAP2K6. As for the experimental part:
(§1) Thermal denaturation experiments were carried out in an Mx3005p real-time PCR machine (Agilent) using a protein concentration of 2 μM and an inhibitor concentration of 10 μM. Samples were buffered in 10 mM HEPES (pH 7.5), 500 mM NaCl and a 1:1000 dilution of SyproOrange (Invitrogen). The assay and data evaluation were carried out as described ([Bullock et al., 2005])

Assay [2] deals with T2, MAP2K2 (Homo sapiens, UniProt P36507).
T2 construct: purchased in-house (SGC Oxford thermal shift panel)
To be noted: read-out: Tm shift MAP2K2. As for the experimental part:
as §1

Assay [3] has as its target CDKL1 (Homo sapiens, UniProt Q00532). To be noted: read-out: Tm shift CDKL1. As for the experimental part: as §1
Assay [4] deals with T3, BMX (Homo sapiens, UniProt P51813).
T3 sequence (P51813 1-675): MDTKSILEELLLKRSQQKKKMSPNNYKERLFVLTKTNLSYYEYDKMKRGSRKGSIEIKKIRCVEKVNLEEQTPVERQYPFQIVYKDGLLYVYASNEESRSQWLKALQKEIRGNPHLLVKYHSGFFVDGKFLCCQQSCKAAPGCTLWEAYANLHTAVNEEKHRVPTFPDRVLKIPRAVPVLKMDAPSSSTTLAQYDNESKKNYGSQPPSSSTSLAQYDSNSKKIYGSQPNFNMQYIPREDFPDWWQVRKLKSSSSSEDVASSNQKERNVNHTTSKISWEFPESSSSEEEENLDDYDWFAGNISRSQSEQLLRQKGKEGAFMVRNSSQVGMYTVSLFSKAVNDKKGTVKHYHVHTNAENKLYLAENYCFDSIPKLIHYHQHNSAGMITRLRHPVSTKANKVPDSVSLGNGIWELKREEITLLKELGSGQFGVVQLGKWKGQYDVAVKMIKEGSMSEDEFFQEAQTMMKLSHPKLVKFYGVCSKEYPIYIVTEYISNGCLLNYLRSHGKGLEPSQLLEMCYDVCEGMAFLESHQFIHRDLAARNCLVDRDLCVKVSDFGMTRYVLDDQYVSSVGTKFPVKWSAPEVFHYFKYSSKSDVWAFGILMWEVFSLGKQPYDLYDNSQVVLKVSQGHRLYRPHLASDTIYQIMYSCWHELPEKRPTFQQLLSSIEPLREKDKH
To be noted: read-out: Tm shift BMX. As for the experimental part:
as §1

Assay [5] deals with YANK1 (Homo sapiens, UniProt Q8WU08). To be noted: read-out: Tm shift YANK1. As to the method: as §1
In assay [6] the target is T4, DRAK1 (Homo sapiens, UniProt Q9UEE5).
T4 construct: purchased in-house (SGC Oxford thermal shift panel)
T4 sequence (Q9UEE5 1-414): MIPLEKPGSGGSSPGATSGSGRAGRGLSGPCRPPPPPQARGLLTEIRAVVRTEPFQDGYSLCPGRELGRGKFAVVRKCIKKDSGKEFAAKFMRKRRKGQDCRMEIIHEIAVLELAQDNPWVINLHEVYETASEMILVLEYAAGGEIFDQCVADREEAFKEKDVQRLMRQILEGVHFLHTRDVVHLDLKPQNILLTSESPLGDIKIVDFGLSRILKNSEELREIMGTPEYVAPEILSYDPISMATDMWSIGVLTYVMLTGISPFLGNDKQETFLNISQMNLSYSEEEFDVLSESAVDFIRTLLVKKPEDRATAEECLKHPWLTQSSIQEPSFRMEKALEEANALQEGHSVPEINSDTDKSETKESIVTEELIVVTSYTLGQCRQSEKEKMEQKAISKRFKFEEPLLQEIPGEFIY
To be noted: read-out: Tm shift DRAK1. As to the method: as §1

Assay [7] concerns the target T5, DMPK1 (Homo sapiens, UniProt Q09013).
T5 construct: purchased in-house (SGC Oxford thermal shift panel)
T5 sequence (Q09013 1-629): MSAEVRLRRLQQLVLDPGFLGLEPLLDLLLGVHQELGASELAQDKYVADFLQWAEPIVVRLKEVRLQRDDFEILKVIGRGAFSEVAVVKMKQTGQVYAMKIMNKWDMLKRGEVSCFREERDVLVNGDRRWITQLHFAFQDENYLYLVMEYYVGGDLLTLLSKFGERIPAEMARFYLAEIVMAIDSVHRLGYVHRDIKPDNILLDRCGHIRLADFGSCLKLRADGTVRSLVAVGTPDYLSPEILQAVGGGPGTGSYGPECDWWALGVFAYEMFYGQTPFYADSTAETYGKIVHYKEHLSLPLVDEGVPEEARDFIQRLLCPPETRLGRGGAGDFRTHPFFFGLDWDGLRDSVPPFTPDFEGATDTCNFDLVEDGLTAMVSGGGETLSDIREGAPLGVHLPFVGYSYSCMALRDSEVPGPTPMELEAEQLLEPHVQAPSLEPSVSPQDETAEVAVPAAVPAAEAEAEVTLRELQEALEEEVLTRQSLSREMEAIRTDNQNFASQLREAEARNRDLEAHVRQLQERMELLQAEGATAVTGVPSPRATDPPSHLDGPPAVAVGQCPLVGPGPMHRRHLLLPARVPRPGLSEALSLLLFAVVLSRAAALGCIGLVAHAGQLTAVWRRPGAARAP
To be noted: read-out: Tm shift DMPK1. As for the experimental part:
as §1

Assay [8] deals with RSK4 (Homo sapiens, UniProt Q9UK32). The settings on record: read-out: Tm shift RSK4. As for the experimental part: as §1
In assay [9] the target is T6, JNK1 (Homo sapiens, UniProt P45983).
T6 construct: purchased in-house (SGC Oxford thermal shift panel)
To be noted: read-out: Tm shift JNK1. As for the experimental part:
as §1

Like-named read-outs stand apart in the source and are kept apart here.

YANK1, sequence (Q8WU08 whole entry): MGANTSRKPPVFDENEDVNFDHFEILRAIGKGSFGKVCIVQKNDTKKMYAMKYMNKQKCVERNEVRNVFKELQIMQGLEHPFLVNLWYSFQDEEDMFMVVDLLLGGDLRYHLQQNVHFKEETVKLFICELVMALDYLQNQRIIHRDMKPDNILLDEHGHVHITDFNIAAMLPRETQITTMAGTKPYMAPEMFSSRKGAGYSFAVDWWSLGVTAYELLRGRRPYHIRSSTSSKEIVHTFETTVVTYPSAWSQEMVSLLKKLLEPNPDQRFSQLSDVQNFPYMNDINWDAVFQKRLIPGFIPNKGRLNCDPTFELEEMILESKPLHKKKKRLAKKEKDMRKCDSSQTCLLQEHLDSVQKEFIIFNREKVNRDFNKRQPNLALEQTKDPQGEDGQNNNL
RSK4, sequence (Q9UK32 whole entry): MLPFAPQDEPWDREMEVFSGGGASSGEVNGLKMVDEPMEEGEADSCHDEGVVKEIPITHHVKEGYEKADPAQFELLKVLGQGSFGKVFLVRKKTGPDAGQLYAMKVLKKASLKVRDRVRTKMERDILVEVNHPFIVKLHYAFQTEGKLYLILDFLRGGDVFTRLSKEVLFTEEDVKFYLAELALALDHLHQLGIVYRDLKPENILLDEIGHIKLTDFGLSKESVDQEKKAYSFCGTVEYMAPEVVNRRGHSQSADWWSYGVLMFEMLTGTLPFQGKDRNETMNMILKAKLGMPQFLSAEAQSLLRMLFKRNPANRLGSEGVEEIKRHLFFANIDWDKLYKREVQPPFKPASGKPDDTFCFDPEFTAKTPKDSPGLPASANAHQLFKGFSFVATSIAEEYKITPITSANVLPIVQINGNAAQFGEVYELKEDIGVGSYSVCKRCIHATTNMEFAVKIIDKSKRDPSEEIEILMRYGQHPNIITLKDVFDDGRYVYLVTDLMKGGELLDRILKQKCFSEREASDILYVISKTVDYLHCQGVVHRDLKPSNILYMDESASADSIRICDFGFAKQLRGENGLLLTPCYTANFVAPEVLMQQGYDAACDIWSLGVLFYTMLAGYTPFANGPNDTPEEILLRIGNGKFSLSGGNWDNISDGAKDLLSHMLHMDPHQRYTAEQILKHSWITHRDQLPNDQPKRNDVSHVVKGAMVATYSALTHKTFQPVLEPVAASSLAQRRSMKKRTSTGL
CDKL1, sequence (Q00532 whole entry): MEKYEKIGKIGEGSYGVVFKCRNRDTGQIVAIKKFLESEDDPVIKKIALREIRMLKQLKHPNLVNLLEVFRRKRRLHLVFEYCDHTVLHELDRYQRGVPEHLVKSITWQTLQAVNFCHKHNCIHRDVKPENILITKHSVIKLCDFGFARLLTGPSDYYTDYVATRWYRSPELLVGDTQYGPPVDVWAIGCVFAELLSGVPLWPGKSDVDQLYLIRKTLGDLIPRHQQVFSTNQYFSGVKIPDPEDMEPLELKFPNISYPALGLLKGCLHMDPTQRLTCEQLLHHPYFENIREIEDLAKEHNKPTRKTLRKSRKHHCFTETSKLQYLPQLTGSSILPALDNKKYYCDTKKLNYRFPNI
T2 sequence (P36507 whole entry): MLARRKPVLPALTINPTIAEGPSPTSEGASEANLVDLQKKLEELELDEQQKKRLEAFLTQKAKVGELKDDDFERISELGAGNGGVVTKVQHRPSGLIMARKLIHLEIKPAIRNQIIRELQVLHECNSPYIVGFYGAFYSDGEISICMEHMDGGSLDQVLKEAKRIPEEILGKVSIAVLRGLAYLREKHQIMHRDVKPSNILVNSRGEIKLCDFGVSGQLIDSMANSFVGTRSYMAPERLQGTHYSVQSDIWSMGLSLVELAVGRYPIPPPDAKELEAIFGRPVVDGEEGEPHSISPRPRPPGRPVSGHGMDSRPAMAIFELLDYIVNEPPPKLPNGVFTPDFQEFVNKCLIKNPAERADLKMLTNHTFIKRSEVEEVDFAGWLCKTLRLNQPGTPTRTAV
T6 sequence (P45983 whole entry): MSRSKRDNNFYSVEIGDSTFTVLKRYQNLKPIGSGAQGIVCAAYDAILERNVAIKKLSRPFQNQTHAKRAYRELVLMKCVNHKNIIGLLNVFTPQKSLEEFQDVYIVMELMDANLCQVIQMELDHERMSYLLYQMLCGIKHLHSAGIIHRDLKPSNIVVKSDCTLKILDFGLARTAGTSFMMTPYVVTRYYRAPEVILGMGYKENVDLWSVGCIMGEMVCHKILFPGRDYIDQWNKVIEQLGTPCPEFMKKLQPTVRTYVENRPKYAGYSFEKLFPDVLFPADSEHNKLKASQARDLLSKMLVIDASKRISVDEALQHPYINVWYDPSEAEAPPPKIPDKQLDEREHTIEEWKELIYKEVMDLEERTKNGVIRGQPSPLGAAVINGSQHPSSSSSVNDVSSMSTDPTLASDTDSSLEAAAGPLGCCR

In the case of `CCOC(=O)c1c(/C(C#N)=C\N)c2ccc(Cl)c(Cl)c2n1C` [KH-CB19, (E)-Ethyl 3-(2-Amino-1-Cyanovinyl)-6,7-Dichloro-1-Methyl-1H-Indole-2-Carboxylate], the ΔTm at 10 µM was 0.5 °C in [1]; 0.1 °C in [2]; 0 °C in assay [3]; 0.2 °C in assay [4]; -0.2 °C in assay [5]; 2.5 °C in assay [6]. The ΔTm at 10 µM was -0.4 °C in [7], 1.6 °C in assay [8] and 0.9 °C in [9].
As for `NC1=NC(=O)/C(=C2\CCNC(=O)c3[nH]c(Br)cc32)N1` [Hymenialdisine, hymenialdisine, reference compound], the ΔTm at 10 µM was 0.6 °C in [1] (inhibitor 10 μM); 2 °C in assay [2] (inhibitor 10 μM); 0.6 °C in [3] (inhibitor 10 μM); -0.1 °C in assay [4] (inhibitor 10 μM); 0 °C in assay [5] (inhibitor 10 μM); 14.8 °C in assay [6] (inhibitor 10 μM). Also, the ΔTm at 10 µM in assay [7] (inhibitor 10 μM) was 0.2 °C; in assay [8] (inhibitor 10 μM), 1.7 °C; in assay [9] (inhibitor 10 μM), -0.5 °C.
As to `CCOC(=O)c1c(C(C#N)=CN)c2ccc(Cl)c(Cl)c2n1C` (mixture of isomers) [KH-CB20, (E/Z)-Ethyl 3-(2-Amino-1-Cyanovinyl)-6,7-Dichloro-1-Methyl-1H-Indole-2-Carboxylate], the ΔTm at 10 µM in [1] is 0.6 °C; in assay [2] it was 0 °C; in [3], 0.2 °C; in assay [4], 0.2 °C; in assay [5] it was -0.3 °C; in assay [6], 2.6 °C. The results for the ΔTm at 10 µM in assay [7], in assay [8] and in [9] were -0.4 °C, 1.1 °C and 0.2 °C, respectively.
On to `Cn1c2c(Cl)c(Cl)ccc2c2c(C#N)c[nH]c(=O)c21` [compound 3, 7,8-Dichloro-9-Methyl-1-Oxo-2,9-Dihydro-1H-Pyrido[3,4-b]Indole-4-Carbonitrile], for which the ΔTm at 10 µM in assay [1] (inhibitor 10 μM) is 0.1 °C; in assay [2] (inhibitor 10 μM) it was 0.1 °C; in [3] (inhibitor 10 μM), 0.2 °C; in assay [4] (inhibitor 10 μM), -0.1 °C; in [5] (inhibitor 10 μM), 0.3 °C; in assay [6] (inhibitor 10 μM) it was 1.7 °C. Also, the ΔTm at 10 µM in assay [7] (inhibitor 10 μM) is 0.9 °C; in assay [8] (inhibitor 10 μM) it was 1.3 °C; in assay [9] (inhibitor 10 μM) it was 0.2 °C.
With `CCOC(=O)c1c(C(C#N)=CN(C)C)c2ccc(Cl)c(Cl)c2n1C` (mixture of isomers) [compound 2, (E/Z)-Ethyl 6,7-Dichloro-3-[1-Cyano-2-(Dimethylamino)Vinyl]-1-Methyl-1H-Indole-2-Carboxylate], the ΔTm at 10 µM in [1] (inhibitor 10 μM) was 0.4 °C; in assay [2] (inhibitor 10 μM) it was -0.4 °C; in assay [3] (inhibitor 10 μM), 0.6 °C; in [4] (inhibitor 10 μM) it was -0.2 °C; in assay [5] (inhibitor 10 μM), 0 °C; in assay [6] (inhibitor 10 μM), -0.2 °C. Moreover, the ΔTm at 10 µM in assay [7] (inhibitor 10 μM) is -0.3 °C; in assay [8] (inhibitor 10 μM), -0.2 °C; in assay [9] (inhibitor 10 μM), 0.1 °C.
